In patent US11000033B2, “Ketone or oxime compound, and herbicide” (NISSAN CHEMICAL CORPORATION, priority 2014, dated 2021):

Columns and labels:
Assay type in all cases: in vivo
Chenopodium album [1] = assay: Test Example 4: herbicidal effect by soil treatment (symbol O)
Outline: (§1)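 Seeds were sown in sterilized diluvial soil, covered with about 1.5 cm of soil, and the soil surface was sprayed with a water-diluted emulsion of the compound at a predetermined rate. Plants grew in a greenhouse at 25° C. to 30° C.; effects were scored visually 3 weeks after application.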

Apera spica-venti = assay: Test Example 5: herbicidal effect by foliage application, plastic box (symbol L); details: 320 g/ha, 3 weeks after application
Outline: (§2)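 Sowing in sterilized diluvial soil, 14 days' greenhouse growth at 25° C. to 30° C., then uniform small-sprayer foliar application of aqueous emulsion dilution; plants scored three weeks afterwards.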

Abutilon theophrasti [2] = assay: Test Example 4: herbicidal effect by soil treatment (symbol M)
Outline: as §1

[3] = system: Echinochloa oryzacola Vasing.; assay: Test Example 2: herbicidal activity, application during weed generation in submerged conditions (symbol A); details: Table 23; application herbicide amount 320 g/ha; grade 0-5 by criteria of Test Example 1
Outline: (§3)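 Weeds emerging under flooded conditions were treated with compound formulated as an emulsion and diluted with water to the intended herbicide amount, poured onto the surface of 4 cm standing water. Seeds had been co-sown in alluvial soil; plants grew at 25° C. to 30° C. and were assessed after 3 weeks.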

Setaria viridis = assay: Test Example 4: herbicidal effect by soil treatment (symbol G)
Outline: as §1

beet = assay: Test Example 4: effect on crop by soil treatment (symbol f); details: for f: beet, effect grade on crop: 320 g/ha
Outline: (§4)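 Greenhouse culture at 25° C. to 30° C. followed sowing of seed in spots on sterilized diluvial soil with a soil cover close to 1.5 cm thick.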

Veronica persica = assay: Test Example 5: herbicidal effect by foliage application, plastic box (symbol R); details: 320 g/ha, 3 weeks after application
Outline: as §2

Stellaria media = assay: Test Example 5: herbicidal effect by foliage application, plastic box (symbol P); details: 320 g/ha, 3 weeks after application
Outline: as §2

Lolium multiflorum Lam. = assay: Test Example 4: herbicidal effect by soil treatment (symbol K)
Outline: as §1

[4] = system: Echinochloa crus-galli var. crus-galli; assay: Test Example 3: herbicidal effect by foliage application, Wagner pot (symbol H); details: application herbicide amount 320 g/ha
Outline: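 Alluvial soil was flooded to a depth of 0.1–0.5 cm, seeded with the weeds and rice, and kept in a greenhouse at 25–30 °C. After 14 days of growth, the foliage received a small-sprayer application of emulsion diluted to the intended rate; injury was rated at 3 weeks.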

rice plant = assay: Test Example 5: effect on crop by foliage application, plastic box (symbol b); details: 320 g/ha, 3 weeks after application
Outline: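 Crop seed is sown alongside grass and broadleaf weed species in spots in sterilized diluvial soil, then covered to a depth of about 1.5 cm. Plants grow in a greenhouse kept at 25° C. to 30° C.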

Digitaria ciliaris = assay: Test Example 4: herbicidal effect by soil treatment (symbol F)
Outline: as §1

Monochoria vaginalis = assay: Test Example 2: herbicidal activity, application during weed generation in submerged conditions (symbol C); details: Table 23; application herbicide amount 320 g/ha; grade 0-5 by criteria of Test Example 1
Outline: as §3

Chenopodium album [5] = assay: Test Example 5: herbicidal effect by foliage application, plastic box (symbol O); details: 320 g/ha, 3 weeks after application
Outline: as §2

soybean = assay: Test Example 4: effect on crop by soil treatment (symbol d); details: for d: soybean, effect grade on crop: 320 g/ha
Outline: as §4

Avena fatua = assay: Test Example 5: herbicidal effect by foliage application, plastic box (symbol I); details: 320 g/ha, 3 weeks after application
Outline: as §2

Abutilon theophrasti [6] = assay: Test Example 5: herbicidal effect by foliage application, plastic box (symbol M); details: 320 g/ha, 3 weeks after application
Outline: as §2

Galium spurium = assay: Test Example 4: herbicidal effect by soil treatment (symbol Q)
Outline: as §1

[7] = application herbicide amount 320 g/ha

Compound	Herbicidal effect grade, A: Echinochloa oryzacola Vasing. [3]	Herbicidal effect grade, C: Monochoria vaginalis (Monochoria vaginalis)	O: Chenopodium album, herbicidal effect grade (Chenopodium album [1]; 320 g/ha)	L: Apera spica-venti, herbicidal effect (criteria 0-5) (Apera spica-venti)	M: Abutilon theophrasti, herbicidal effect grade (Abutilon theophrasti [2]; 320 g/ha)	G: Setaria viridis, herbicidal effect grade (Setaria viridis; 320 g/ha)	f: beet, effect grade on crop (beet)	R: Veronica persica, herbicidal effect (criteria 0-5) (Veronica persica)	P: Stellaria media, herbicidal effect (criteria 0-5) (Stellaria media)	K: Lolium multiflorum Lam., herbicidal effect grade (Lolium multiflorum Lam.; 320 g/ha)	herbicidal effect on H (Echinochloa crus-galli var. crus-galli), grade 0-5 [4]	b: directly sowed rice plant, effect on crop (criteria 0-5) (rice plant)	F: Digitaria ciliaris, herbicidal effect grade (Digitaria ciliaris; 320 g/ha)	O: Chenopodium album, herbicidal effect (criteria 0-5) (Chenopodium album [5])	d: soybean, effect grade on crop (soybean)	I: Avena fatua, herbicidal effect (criteria 0-5) (Avena fatua)	M: Abutilon theophrasti, herbicidal effect (criteria 0-5) (Abutilon theophrasti [6])	Q: Galium spurium, herbicidal effect grade (Galium spurium; 320 g/ha)	also measured
CCC(CC1CC(O)=C(c2c(C)cc(C)cc2OC)C1=O)=NOC (mixture of isomers) [13-003]	5 (Herbicidal ratio of 90% or more (almost completely withered))	3 (Herbicidal ratio of 40% or higher and lower than 70%)	–	–	–	–	–	–	–	–	–	–	–	–	–	–	–	–	O: Chenopodium album, herbicidal effect grade (Chenopodium album [1]; [7]): 0 (Herbicidal ratio of 5% or lower (almost no effect)); L: Apera spica-venti, herbicidal effect grade (Apera spica-venti): 5 (Herbicidal ratio of 90% or more (almost completely withered)); M: Abutilon theophrasti, herbicidal effect grade (Abutilon theophrasti [2]; [7]): 4 (Herbicidal ratio of 70% or higher and lower than 90%); G: Setaria viridis, herbicidal effect grade (Setaria viridis; [7]): 5 (Herbicidal ratio of 90% or more (almost completely withered)); f: beet, effect on crop grade (beet; [7]): 0 (Herbicidal ratio of 5% or lower (almost no effect)); R: Veronica persica, herbicidal effect grade (Veronica persica): 1 (Herbicidal ratio of 5% or higher and lower than 20%); P: Stellaria media, herbicidal effect grade (Stellaria media): 1 (Herbicidal ratio of 5% or higher and lower than 20%); K: Lolium multiflorum Lam., herbicidal effect grade (Lolium multiflorum Lam.; [7]): 5 (Herbicidal ratio of 90% or more (almost completely withered)); H (Echinochloa crus-galli var. crus-galli) herbicidal effect grade ([4]; Table 24): 5 (Herbicidal ratio of 90% or more (almost completely withered)); b: directly sowed rice plant, effect on crop grade (rice plant): 5 (Herbicidal ratio of 90% or more (almost completely withered)); F: Digitaria ciliaris, herbicidal effect grade (Digitaria ciliaris; [7]): 5 (Herbicidal ratio of 90% or more (almost completely withered)); O: Chenopodium album, herbicidal effect grade (Chenopodium album [5]): 0 (Herbicidal ratio of 5% or lower (almost no effect)); d: soybean, effect on crop grade (soybean; [7]): 0 (Herbicidal ratio of 5% or lower (almost no effect)); I: Avena fatua, herbicidal effect grade (Avena fatua): 5 (Herbicidal ratio of 90% or more (almost completely withered)); M: Abutilon theophrasti, herbicidal effect grade (Abutilon theophrasti [6]): 4 (Herbicidal ratio of 70% or higher and lower than 90%); Q: Galium spurium, herbicidal effect grade (Galium spurium; [7]): 0 (Herbicidal ratio of 5% or lower (almost no effect))
CON=C(C)CC1CC(OC(=O)CSc2ccccc2)=C(c2c(C)cc(C)cc2C)C1=O (stereo not shown) [1-134]	5 (Herbicidal ratio of 90% or more (almost completely withered))	3 (Herbicidal ratio of 40% or higher and lower than 70%)	0 (Herbicidal ratio of 5% or lower (almost no effect))	5 (Herbicidal ratio of 90% or more (almost completely withered))	3 (Herbicidal ratio of 40% or higher and lower than 70%)	5 (Herbicidal ratio of 90% or more (almost completely withered))	0 (Herbicidal ratio of 5% or lower (almost no effect))	1 (Herbicidal ratio of 5% or higher and lower than 20%)	2 (Herbicidal ratio of 20% or higher and lower than 40%)	5 (Herbicidal ratio of 90% or more (almost completely withered))	5 (Herbicidal ratio of 90% or more (almost completely withered))	5 (Herbicidal ratio of 90% or more (almost completely withered))	5 (Herbicidal ratio of 90% or more (almost completely withered))	4 (Herbicidal ratio of 70% or higher and lower than 90%)	0 (Herbicidal ratio of 5% or lower (almost no effect))	5 (Herbicidal ratio of 90% or more (almost completely withered))	2 (Herbicidal ratio of 20% or higher and lower than 40%)	0 (Herbicidal ratio of 5% or lower (almost no effect))	–
CC(CC1CC(O)=C(c2c(C)cc(C)cc2C)C1=O)=NOCc1ccc(F)cc1 (stereo not shown) [1-136]	4 (Herbicidal ratio of 70% or higher and lower than 90%)	5 (Herbicidal ratio of 90% or more (almost completely withered))	0 (Herbicidal ratio of 5% or lower (almost no effect))	5 (Herbicidal ratio of 90% or more (almost completely withered))	–	5 (Herbicidal ratio of 90% or more (almost completely withered))	0 (Herbicidal ratio of 5% or lower (almost no effect))	2 (Herbicidal ratio of 20% or higher and lower than 40%)	1 (Herbicidal ratio of 5% or higher and lower than 20%)	5 (Herbicidal ratio of 90% or more (almost completely withered))	5 (Herbicidal ratio of 90% or more (almost completely withered))	5 (Herbicidal ratio of 90% or more (almost completely withered))	5 (Herbicidal ratio of 90% or more (almost completely withered))	0 (Herbicidal ratio of 5% or lower (almost no effect))	0 (Herbicidal ratio of 5% or lower (almost no effect))	4 (Herbicidal ratio of 70% or higher and lower than 90%)	3 (Herbicidal ratio of 40% or higher and lower than 70%)	0 (Herbicidal ratio of 5% or lower (almost no effect))	–
CC(CC1CC(O)=C(c2c(C)cc(C)cc2C)C1=O)=NOCc1ccc(C(F)(F)F)cc1 (stereo not shown) [1-138]	3 (Herbicidal ratio of 40% or higher and lower than 70%)	2 (Herbicidal ratio of 20% or higher and lower than 40%)	0 (Herbicidal ratio of 5% or lower (almost no effect))	5 (Herbicidal ratio of 90% or more (almost completely withered))	0 (Herbicidal ratio of 5% or lower (almost no effect))	4 (Herbicidal ratio of 70% or higher and lower than 90%)	0 (Herbicidal ratio of 5% or lower (almost no effect))	3 (Herbicidal ratio of 40% or higher and lower than 70%)	1 (Herbicidal ratio of 5% or higher and lower than 20%)	5 (Herbicidal ratio of 90% or more (almost completely withered))	3 (Herbicidal ratio of 40% or higher and lower than 70%)	5 (Herbicidal ratio of 90% or more (almost completely withered))	–	0 (Herbicidal ratio of 5% or lower (almost no effect))	0 (Herbicidal ratio of 5% or lower (almost no effect))	5 (Herbicidal ratio of 90% or more (almost completely withered))	3 (Herbicidal ratio of 40% or higher and lower than 70%)	0 (Herbicidal ratio of 5% or lower (almost no effect))	–
